# Data published in patent US7183312B2, “Taxanes having a C7 heterosubstituted acetate substituent” (FSU Research Foundation, Inc., priority 2000, dated 2007).
# Test system: HCT116
# Experiment: In vitro cytotoxicity measured by the cell colony formation assay
# Assay type: cell-based
# Conditions: HCT116 cells; incubated with drugs for 72 h at 37° C.; colonies counted after 7 days; ID50 = drug concentration producing 50% inhibition of colony formation; read-out: IN VITRO ID 50 (nm) HCT116
# Method: In Vitro Cytotoxicity Measured by the Cell Colony Formation Assay
# Four hundred cells (HCT116) were plated in 60 mm Petri dishes containing 2.7 mL of medium (modified McCoy's 5a medium containing 10% fetal bovine serum and 100 units/mL penicillin and 100 µg/mL streptomycin). The cells were incubated in a CO2 incubator at 37° C. for 5 h for attachment to the bottom of Petri dishes. The compounds identified in Example 2 were made up fresh in medium at ten times the final concentration, and then 0.3 mL of this stock solution was added to the 2.7 mL of medium in the dish. The cells were then incubated with drugs for 72 h at 37° C. At the end of incubation the drug-containing media were decanted, the dishes were rinsed with 4 mL of Hank's Balance Salt Solution (HBSS), 5 mL of fresh medium was added, and the dishes were returned to the incubator for colony formation. The cell colonies were counted using a colony counter after incubation for 7 days.
row,SMILES,IC50 [nM]
1,COCC(=O)O[C@H]1C[C@H]2OC[C@@]2(OC(C)=O)C2[C@H](OC(=O)c3ccccc3)[C@]3(O)C[C@H](OC(=O)[C@H](O)[C@@H](NC(=O)OC(C)(C)C)c4ccco4)C(C)=C([C@@H](O)C(=O)[C@@]21C)C3(C)C (some centres unmarked) [Compound 5445],< 1
2,COCC(=O)O[C@H]1C[C@H]2OC[C@@]2(OC(C)=O)C2[C@H](OC(=O)c3ccccc3)[C@]3(O)C[C@H](OC(=O)[C@H](O)[C@@H](NC(=O)C=C(C)C)c4ccco4)C(C)=C([C@@H](O)C(=O)[C@@]21C)C3(C)C (some centres unmarked) [Compound 5474],< 1
3,CC(=O)OCC(=O)O[C@H]1C[C@H]2OC[C@@]2(OC(C)=O)C2[C@H](OC(=O)c3ccccc3)[C@]3(O)C[C@H](OC(=O)[C@H](O)[C@@H](NC(=O)C=C(C)C)c4ccco4)C(C)=C([C@@H](O)C(=O)[C@@]21C)C3(C)C (some centres unmarked) [Compound 5544],< 1
4,CC(=O)O[C@@]12CO[C@@H]1C[C@H](OC(=O)COc1ccccc1)[C@@]1(C)C(=O)[C@H](O)C3=C(C)[C@@H](OC(=O)[C@H](O)[C@@H](NC(=O)C=C(C)C)c4ccco4)C[C@@](O)([C@@H](OC(=O)c4ccccc4)C12)C3(C)C (some centres unmarked) [Compound 5555],< 1
5,CSCC(=O)O[C@H]1C[C@H]2OC[C@@]2(OC(C)=O)C2[C@H](OC(=O)c3ccccc3)[C@]3(O)C[C@H](OC(=O)[C@H](O)[C@@H](NC(=O)OC(C)(C)C)c4ccco4)C(C)=C([C@@H](O)C(=O)[C@@]21C)C3(C)C (some centres unmarked) [Compound 5600],< 1
6,CC(=O)O[C@@]12CO[C@@H]1C[C@H](OC(=O)COc1ccccc1)[C@@]1(C)C(=O)[C@H](O)C3=C(C)[C@@H](OC(=O)[C@H](O)[C@@H](NC(=O)OC(C)(C)C)c4ccco4)C[C@@](O)([C@@H](OC(=O)c4ccccc4)C12)C3(C)C (some centres unmarked) [Compound 5616],< 1
7,CC(=O)OCC(=O)O[C@H]1C[C@H]2OC[C@@]2(OC(C)=O)C2[C@H](OC(=O)c3ccccc3)[C@]3(O)C[C@H](OC(=O)[C@H](O)[C@@H](NC(=O)OC(C)(C)C)c4ccco4)C(C)=C([C@@H](O)C(=O)[C@@]21C)C3(C)C (some centres unmarked) [Compound 5622],< 1
8,C/C=C/C(=O)N[C@@H](c1ccco1)[C@@H](O)C(=O)O[C@H]1C[C@@]2(O)[C@@H](OC(=O)c3ccccc3)C3[C@](C)(C(=O)[C@H](O)C(=C1C)C2(C)C)[C@@H](OC(=O)COc1ccccc1)C[C@H]1OC[C@@]31OC(C)=O (some centres unmarked) [Compound 5811],< 1
9,C/C=C/C(=O)N[C@@H](c1ccco1)[C@@H](O)C(=O)O[C@H]1C[C@@]2(O)[C@@H](OC(=O)c3ccccc3)C3[C@](C)(C(=O)[C@H](O)C(=C1C)C2(C)C)[C@@H](OC(=O)COC)C[C@H]1OC[C@@]31OC(C)=O (some centres unmarked) [Compound 5835],< 1
10,"CCC(C)(C)OC(=O)NC(c1ccco1)C(O)C(=O)OC1CC2(O)C(OC(=O)c3ccccc3)C3C4(OC(C)=O)COC4CC(OC(=O)COC)C3(C)C(=O)C(O)C(=C1C)C2(C)C (centres unmarked) [Compound 6226, N-Debenzoyl-N-tert-amyloxycarbonyl-3′-desphenyl-3′-(2-furyl)-10-deacetyl-7-methoxyacetyl taxol]",< 1
11,CCC(C)(C)OC(=O)N[C@@H](c1ccco1)[C@@H](O)C(=O)O[C@H]1C[C@@]2(O)[C@@H](OC(=O)c3ccccc3)C3[C@](C)(C(=O)[C@H](O)C(=C1C)C2(C)C)[C@@H](OC(=O)COC(C)=O)C[C@H]1OC[C@@]31OC(C)=O (some centres unmarked) [Compound 6353],< 1
